Here are results for 5 molecules from ChEMBL document CHEMBL1130879, “trans-3-Benzyl-4-hydroxy-7-chromanylbenzoic acid derivatives as antagonists of the leukotriene B4 (LTB4) receptor” (Bioorg Med Chem Lett, 1998).

The target in experiment [1] is Leukotriene B4 receptor (Cavia porcellus). Nature of the experiment: Compound was evaluated for its ability to inhibit [3H]LTB4 binding to LTB4 receptors on guinea pig spleen membranes.
The target in experiment [2] is T1, Leukotriene B4 receptor (Homo sapiens, UniProt Q9NPC1+Q15722). Nature of the experiment: Ability to inhibit LTB4 binding to LTB receptors on isolated human neutrophils. Type of experiment: protein assay.
The target in experiment [3] is T1, Leukotriene B4 receptor. Nature of the experiment: Ability to inhibit LTB4-induced chemotaxis of isolated human neutrophils. Format: functional.

In general, IC50 refers to the concentration that gives 50% inhibition. In the case of `CNC(=O)c1ccc(C(=O)O)c(-c2ccc3c(c2)OC[C@H](Cc2ccccc2)[C@H]3O)c1`, in experiment [1], the IC50 was determined as 4.7 µM.

In experiment [1], `COc1ccc(C(=O)O)c(-c2ccc3c(c2)OC[C@H](Cc2ccccc2)[C@H]3O)c1` came in with an IC50 of 0.16 µM. Against the preceding molecule, the IC50 is about 29-fold lower.

With `O=C(O)c1ccc(C(=O)O)c(-c2ccc3c(c2)OC[C@H](Cc2ccccc2)[C@H]3O)c1`, the IC50 in experiment [1] is over 1 µM.

`O=C(O)c1ccccc1-c1ccc2c(c1)OC[C@H](Cc1ccccc1)[C@H]2O` returned a 50% inhibitory concentration (IC50) in experiment [1] of 0.12 µM.

In the case of `O=C(O)c1ccc(Cl)cc1-c1ccc2c(c1)OC[C@H](Cc1ccccc1)[C@H]2O` (stereo in doubt; 5), the IC50 on Leukotriene B4 receptor [2] was determined as 0.012 µM; in experiment [1], 0.059 µM; against Leukotriene B4 receptor [3] it was 0.026 µM.
